| SMILES | melting point |
| --- | --- |
| CCCCc1c2c(nc3ccccc13)-c1cc3c(c(=O)n1C2)COC(=O)CC3(O)CC (stereo not drawn) | 220 to 221 °C |
| COc1ccc(C(=O)Nc2c(Cl)cncc2Cl)c2c1[nH]c1ccc(Cl)cc12 | > 359 °C |
| COc1ccc(-c2nc(CCCCCC(C)(C)c3nnn[nH]3)oc2-c2ccc(OC)cc2)cc1 | 82 °C |
| CCOP(=O)(CCCN)OCC | 54 °C |
| COc1ccc(Br)c(C=O)c1 | 73 to 74 °C |
| COc1ccc(Cl)cc1C1(O)C(=O)Nc2ccc(C(F)(F)F)cc21 (stereo not drawn) | 218 to 220 °C |
| Cc1nc2n(C)nc(C)n2c(=O)c1CCCl | 140 °C |
| CCn1c(=O)c2[nH]c(C(C)C)nc2n(Cc2ccc(OC)c(OC3CCCC3)c2)c1=O | 208 to 209 °C |
| CC1(C)CC(N2CCCCCC2=O)CC(C)(C)N1CCO | 141 to 142 °C |
| Oc1ccc2cc(-c3noc4ccc(O)cc34)ccc2c1 | 250 to 252 °C |
| NC(=O)[C@@H](CCC(F)(F)F)N(Cc1ccc(-c2ncon2)cc1F)S(=O)(=O)c1ccc(Cl)cc1 | 66 to 68 °C |
| Cc1nc2c(-c3ccc(N4CCN(C)CC4)cc3)cnn2c(N)c1-c1ccc(F)cc1 | 289 to 291 °C |
| COc1cc(Nc2c(C#N)cnc3c(/C=C/CCN4CCOCC4)cccc23)c(Cl)cc1Cl | 176 to 179 °C |
| CCc1cccc(C)c1CNc1nc(OC)cc(NC)c1[N+](=O)[O-] | 166 to 167 °C |
| CC1CC2C3CC(Cl)C4=CC(=O)C=CC4(C)C3C(O)CC2(C)C1C(=O)COC(=O)C(C)(C)C (stereo not drawn) | 189 °C |
| Fc1ccc(N2CCN(Cc3cn4cc(Br)ccc4n3)CC2)cc1 | 110 to 112 °C |
| COC(=O)/C=C/c1ccc2c(c1)C(C)(C)CC(=O)N2 | 174 to 175 °C |
| CC1(C)CC(=O)C(Cc2ccc(Cl)cc2)C(=O)C1 | 188 to 190 °C |
| CC(C)(C)c1cc(C=C2OC(NC(=N)N)=NC2=O)cc(C(C)(C)C)c1O | 258 °C |

| SMILES | melting point |
| --- | --- |
| CC(C)(O)c1ccc(-c2cnc3[nH]c(=O)n(CC4CCOCC4)c3n2)cc1 | 212 to 214 °C |
| c1cc2ncn(CCCCc3nnnn3C3CCCCC3)c2cn1 | 133 to 135 °C |
| Cc1c(C(=O)Nc2ccc(N3CCC(N4CCOCC4)CC3)c(C#N)c2)cnn1-c1ccc(F)c(F)c1 | 243 °C |
| O=C(Nc1nc(-c2ccco2)c(C(=O)C2CCOCC2)s1)c1ccc(CN2CCCCC2)cc1 | 160 to 162 °C |
| Cc1cc(-c2cnn3c(O)ncnc23)ccc1S(C)=O (stereo not drawn) | 281 to 282 °C |
| Oc1ccc(Oc2ccc(I)cn2)cc1 | 110 °C |
| CN(C(=O)OC(C)(C)C)C1CCN(CC2(C)Cn3cc([N+](=O)[O-])nc3O2)CC1 (stereo not drawn) | 199 to 201 °C |
| COc1ccc2c(c1OC)CCCC2c1c[nH]cn1 (stereo not drawn) | 160 °C |
| CC(C)OC(=O)Cn1c(=O)n(C)c(=O)n(-c2cc(N=c3sc(=S)n4n3CCC=C4)c(F)cc2Cl)c1=O | 105 to 113 °C |
| C=CCOc1cc(Cl)ccc1C(=O)OC | 47 to 55 °C |
| CC(C)=CCCC(C)=CCCC(C)=CC=CC(C)=CC(=O)O | 78.4 °C |
| CS(=O)(=O)NC(c1ccc(Cl)c2nc3n(c12)CCCN3c1c(Cl)cc(Cl)cc1Cl)C(F)(F)F (stereo not drawn) | 290 to 291 °C |
| COc1ccc2c(C(=S)N(C)CC(N)=O)c(F)ccc2c1C(F)(F)F | 222 to 224 °C |
| CN1CCc2c(Cl)ccc3c4c(n(c23)CC1)CCC4 | 138 to 140 °C |
| CC(C)CC1=CC(c2cccc([N+](=O)[O-])c2)C2=C(CCCC2=O)N1 (stereo not drawn) | 158 to 160 °C |
| C[C@@H]1CN(c2ccc(-c3[nH]nc4c3C(=O)c3c(NC(=O)NN5CCOCC5)cccc3-4)cc2)C[C@H](C)N1C | 240 °C |
| CCOc1cc(C(=O)N2CCC(CCN3CCC(C(N)=O)(c4ccccc4)CC3)(c3ccc(OC)c(OC)c3)C2)cc(OCC)c1OCC (stereo not drawn) | 139 to 141 °C |
| CCOCCOc1ccc(-c2ccc3c(c2)C=C(C(=O)Nc2ccc(CN(C)C4CCOCC4)cc2)CCS3(=O)=O)cc1 | 215 to 217 °C |
| Cc1cccc(N2CCN(c3nnc(Cl)c(C)c3C)CC2)c1C | 194 °C |

Results, then the compound that gave them:

| melting point | SMILES |
| --- | --- |
| > 300 °C | NC(Cc1ccc(OCc2ccccc2)cn1)C(=O)Nc1ccc(CCCC(=O)NO)cc1 (stereo not drawn) |
| 245 to 246 °C | Clc1ccccc1N1CCN(Cc2nc3ccccc3[nH]2)CC1 |
| 150 to 152 °C | CCCOC(=O)C1=C(C)NC(C#N)=C(C(=O)OC)C1c1ccccc1C#N (stereo not drawn) |
| 117 to 119 °C | COc1cc(CN2CCN(C(=O)C3=Cc4ccc(OC(=O)c5ccccc5)cc4CC3)CC2)cc(OC)c1OC |
| 126 to 127 °C | CCOC(=O)CN[C@@H](c1ccccc1)[C@H](O)c1ccccc1 |
| 220 to 228 °C | Cc1ccc(O)c(C(CCCC(c2cc(C)ccc2O)c2cc(C)ccc2O)c2cc(C)ccc2O)c1 |
| 88 to 89 °C | CCCCS(=O)(=O)Nc1ccccc1COc1cccc2cccnc12 |
| 90 to 105 °C | Cc1cc(C2(c3ccc(O)cc3)c3ccccc3-c3ccccc32)cc(C)c1O |
| 87 to 89 °C | COc1ccc(CCC(=O)CCC(Cc2ccc(OC)c(OC)c2)[N+](=O)[O-])cc1 (stereo not drawn) |
| 282 °C | COC(=O)CCCC(=O)Nc1ccc(C(=O)NN=C2C(=O)Nc3ccc(I)cc32)cc1 |
| 191 to 193 °C | O=C(O)Cc1nc(-c2ccc(Cl)cc2)sc1Sc1ccccc1 |
| 234 to 235 °C | O=C(Nc1c(C(=O)O)[nH]c2cc(Cl)cc(Cl)c12)c1ccccc1Cc1ccccc1 |
| 226 to 228 °C | Cc1nc(N2CCN(Cc3ccccc3)C2=NC#N)sc1C(=O)NCc1ccccc1 |
| 82 to 83 °C | O=C(CCc1ccccc1)c1cccnc1Oc1ccc(F)cc1 |
| 59.5 to 60.5 °C | CCc1cc(=O)c2cc(C(C)CO)ccc2o1 (stereo not drawn) |
| 145 to 147 °C | COC(=O)c1ccc2c(c1)Oc1ccc(C(=O)OC)cc1C2(C)C |
| 128 to 130 °C | CCOC(=O)c1cnc2onc(C)c2c1N(CS(=O)(=O)c1ccc(OC)cc1)c1cccnc1 |
| 187 to 188 °C | Cc1c(NC(=O)c2ccc(-c3ccccc3)cc2F)ccc2cc(CN3CCCCC3)cnc12 |
| 44 to 45 °C | CCOC(=O)Cc1nc2cc(Cl)ccc2n1CC |
| 186 to 191 °C | CCc1nc2c(N)nc3ccc(OCc4ccccc4)cc3c2n1CCCCNS(C)(=O)=O |
| 131 to 133 °C | COc1cc(CC(=O)OC(C)(C)C)ccc1NC(=O)Nc1ccccc1C(F)(F)F |
| 125 °C | COc1cccc([C@H]2SC[C@@H](C(=O)OC(C)(C)C)N2C(=O)CNC(=O)Nc2cccc(C(=O)O)c2)c1 |
| 77 to 79 °C | O=c1oc2ccccc2n1CCCl |
| 124 to 126 °C | Cc1cc(Cl)ccc1OC(Cn1cncn1)C(O)C(C)(C)C (stereo not drawn) |
| 190 °C | Cc1nc(-c2ccc(C(F)(F)F)cc2)sc1CSc1ccc(OCC(=O)O)cc1 |
| 153 to 154 °C | CN(O)C(=O)NCCCCCOc1ccc(-c2ccccc2)cc1 |
| 129 to 130 °C | OC(CNCCNc1ccccc1Cl)COc1cccc2[nH]ncc12 (stereo not drawn) |
| 187 to 189 °C | O=P1(c2ccc(C(F)(F)F)cc2)c2ccccc2CN1c1ccccc1 (stereo not drawn) |
| 198 to 200 °C | Cc1oc(-c2ccccc2)nc1CCC(=O)c1ccc(CC2OC(=O)NC2=O)cc1 (stereo not drawn) |
| 192 to 193 °C | N#CCCNC(=O)c1cncc(-c2cccc3nn(Cc4cccc(C(F)(F)F)c4)cc23)c1 |

Reference: a melting point compilation (Tetko et al.; mined from patent text by program, amines drawn as free bases though some values may be those of a salt)
